From patent publication US20260273007A1, “FEED ADDITIVE FOR IMPROVING PERFORMANCE OF FARMING ANIMALS” (Nutreco IP Assets B.V., priority 2023, published 2026)

How the values were obtained:
[1] = system: E. maxima; experiment: E. maxima infection of chickens: performance and fecal oocyst shedding (Example 8); assay type: in vivo; details: E. maxima-infected chickens, 90 mg/kg feed of monensin
Source text: Newly hatched chickens from Longnecker's hatchery, Elizabethtown, PA were housed in a Petersime brooder units and provided with feed and water ad libitum. All chickens were weighed and allocated to a cage. Per treatment, 60 chickens (5 birds/cage=12 replication) were used. Initial body weight was the same among treatments. For E. maxima infection freshly propagated E. maxima (ARS strain) were used to infect the birds. On d 14 after hatch, the birds were infected with 10,000 E. maxima oocysts through oral gavage. The experimental treatments were the following: [1]=Negative control (NC), non infected and untreated chicken; [2]=Positive control (PC)=[1]+infection; […] [4]=[2]+55 ppm of dried Glycyrrhiza glabra leaves; [5]=[2]+160 ppm of dried Glycyrrhiza glabra leaves. Monensin is the current standard used to control coccidiosis. […] Oocyst shedding: Faeces from each group was collected separately from 6-8 days post infection (dpi) for coccidiosis. To count coccidia oocysts, various dilutions were made initially to determine the optimum dilutions for enumeration of oocysts for each sample. Oocysts were counted microscopically using a McMaster counting chamber using a sodium chloride flotation method. The total number of oocysts shed per chicken were calculated using the formula: total oocysts/bird=(oocyst count×dilution factor×fecal sample volume/counting chamber volume)/number of birds per cage.

[2] = system: Alpha mouse liver 12 cells (AML12); assay type: cell-based

Row | Compound | ADFI d 15 to 19 (0 to 4 dpi) [1] | ADFI d 15 to 21 (0 to 6 dpi) [1] | ADFI d 15 to 23 (0 to 8 dpi) [1] | ADG d 15 to 19 (0 to 4 dpi) [1] | ADG d 15 to 21 (0 to 6 dpi) [1] | ADG d 15 to 23 (0 to 8 dpi) [1] | BW d 19 (4 dpi) [1] | BW d 21 (6 dpi) [1] | BW d 23 (8 dpi) [1] | FCR d 15 to 19 (0 to 4 dpi) [1] | FCR d 15 to 21 (0 to 6 dpi) [1] | FCR d 15 to 23 (0 to 8 dpi) [1] | Lesion score [1] | Number of oocysts (fecal oocyst shedding, FIG. 2) ([1]; faeces 6-8 dpi) | Cell viability (%) [2]
1 | CC[C@@]1([C@@H]2O[C@@H]([C@H]3O[C@@](O)(CO)[C@H](C)C[C@@H]3C)C[C@@H]2C)CC[C@H]([C@]2(C)CC[C@]3(C[C@H](O)[C@@H](C)[C@@H]([C@@H](C)[C@@H](OC)[C@H](C)C(=O)O)O3)O2)O1 [MO, monensin] | 90 g | 93.5 g | 94.3 g | 76.3 g | 72.9 g | 79.3 g | 890 g | 1,023 g | 1,220 g | 1.191 | 1.31 | 1.21 | reduced | reduced | –
2 | Aflatoxin B1 | – | – | – | – | – | – | – | – | – | – | – | – | – | – | 51.8%
